Read-outs that look alike come from different tables or passages of the source.
How the values were obtained:
17β-HSD1 = target: T1, 17β-HSD1 (Homo sapiens, UniProt P14061); test: Inhibition of 17β-HSD1 in T-47D intact cells (E1 into E2); format: cell-based; details: T47D; for inhibition at 0.1 µM: read-out: Inhibition (0.1 μM); for inhibition at 1 µM: read-out: Inhibition (1 μM)
T1 construct: endogenous in cells; host or cells: T-47D
T1 sequence (P14061 1-328): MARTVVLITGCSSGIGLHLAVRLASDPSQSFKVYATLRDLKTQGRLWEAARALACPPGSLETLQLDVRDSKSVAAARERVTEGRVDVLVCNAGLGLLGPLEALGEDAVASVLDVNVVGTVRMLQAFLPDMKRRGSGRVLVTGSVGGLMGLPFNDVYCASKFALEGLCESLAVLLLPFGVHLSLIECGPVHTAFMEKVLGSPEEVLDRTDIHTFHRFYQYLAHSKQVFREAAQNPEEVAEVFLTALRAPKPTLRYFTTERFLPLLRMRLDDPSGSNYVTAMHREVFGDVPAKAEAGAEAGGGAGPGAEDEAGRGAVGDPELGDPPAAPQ
Experimental: T-47D cells were seeded in a 24-well plate (3000 cells/well) in medium supplemented with insulin (50 ng/mL) and 5% dextran-coated charcoal treated FBS rather than 10% FBS to remove remaining hormones. […] Each inhibitor was assessed in triplicate. After incubation, the culture medium was removed and labelled steroids (E1 and E2) extracted with 1 mL of diethyl ether. The organic phases were separated and evaporated to dryness using nitrogen. Residues were dissolved in dichloromethane and dropped on silica gel thin layer chromatography plates (EMD Chemicals Inc., Gibbstown, N.J., USA) and eluted with a toluene/acetone (4:1) solvent system. Substrate [^14C]-E1 and metabolite [^14C]-E2 were identified by comparison with reference steroids and quantified using a Storm 860 system (Molecular Dynamics, Sunnyvale, Calif., USA).
T-47D cells were seeded in a 24-well plate (3000 cells/well) in 990 μL of medium supplemented with insulin (50 ng/mL) and 5% dextran-coated charcoal-treated FBS, which was used rather than untreated 10% FBS, to remove the remaining steroid hormones. […] The final concentration of ethanol in the well was adjusted to 0.1%. Additionally, 5 μL of a solution of [^14C]-estrone (American Radiolabeled Chemicals, Inc., St. Louis, Mo., USA) was added to obtain a final concentration of 60 nM. […] After incubation, the culture medium was removed and labeled steroids (E1 and E2) were extracted with 1 mL of diethyl ether. The organic phases were evaporated to dryness with nitrogen. Residues were dissolved in dichloromethane and dropped on silica gel thin layer chromatography plates (EMD Chemicals Inc., Gibbstown, N.J., USA) and eluted with toluene/acetone (4:1) as solvent system. Substrate [^14C]-E1 and metabolite [^14C]-E2 were identified by comparison with reference steroids (E1 and E2) and quantified using the Storm 860 system (Molecular Dynamics, Sunnyvale, Calif., USA).

17β-HSD3 [1] = target: T2, 17β-HSD3 (Homo sapiens, UniProt P37058); test: Inhibition of 17β-HSD3 in intact HEK-293 cells; format: cell-based; details: 0.1 μM; for inhibition at 0.1 µM: HEK293, 1 h, read-out: Intact cells (%) (0.1 μM), Table 4; for Intact cells (%) (0.1 μM), tested in another experiment: Table 4, footnote b
T2 construct: expressed in transfected cells; host or cells: HEK-293 (homogenate)
T2 sequence (P37058 1-310): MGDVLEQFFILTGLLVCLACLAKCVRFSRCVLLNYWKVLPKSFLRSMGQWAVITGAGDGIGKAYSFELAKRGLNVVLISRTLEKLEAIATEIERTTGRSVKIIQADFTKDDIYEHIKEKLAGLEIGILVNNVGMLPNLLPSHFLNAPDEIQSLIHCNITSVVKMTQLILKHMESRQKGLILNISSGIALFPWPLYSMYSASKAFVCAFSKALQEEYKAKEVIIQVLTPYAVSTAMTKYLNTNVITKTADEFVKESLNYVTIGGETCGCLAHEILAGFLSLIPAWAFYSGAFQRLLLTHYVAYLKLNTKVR

17β-HSD3 [2] = target: T2, 17β-HSD3; test: Inhibition of 17β-HSD3 in homogenated HEK-293 cells; format: biochemical; details: for inhibition at 0.01 µM: read-out: Homo (%) (0.01 μM), Table 4; for inhibition at 0.1 µM: read-out: Homo (%) (0.1 μM), Table 4; for inhibition at 1 µM: read-out: Homo (%) (1.0 μM), Table 4
[3] = Table 2 (17β-HSD1), [14C]-E1 60 nM, T-47D intact cells, 0.1 μM
[4] = Table 2 (17β-HSD1), [14C]-E1 60 nM, T-47D intact cells, 1 μM

Row | Structure (SMILES) | inhibition at 0.1 µM (17β-HSD3 [1]) | inhibition at 0.01 µM (17β-HSD3 [2]) | inhibition at 0.1 µM (17β-HSD3 [2]) | inhibition at 1 µM (17β-HSD3 [2]) | other results
1 | C[C@]12CC[C@@H]3c4ccc(CCCl)cc4CC[C@H]3[C@@H]1C[C@H](Cc1cccc(C(N)=O)c1)[C@@H]2O [Compound 9, 3-{[(16β,17β)-3-(2-chloroethyl)-17-hydroxyestra-1(10),2,4-trien-16-yl]methyl}benzamide] | – | – | – | – | inhibition at 0.1 µM (17β-HSD1): 55%
2 | C[C@]12CC[C@@H]3c4ccc(CCI)cc4CC[C@H]3[C@@H]1C[C@H](Cc1cccc(C(N)=O)c1)[C@@H]2O [Compound 10, 3-{[(16β,17β)-17-hydroxy-3-(2-iodoethyl)estra-1(10),2,4-trien-16-yl]methyl}benzamide] | – | – | – | – | inhibition at 0.1 µM (17β-HSD1): 7%
3 | C[C@]12CC[C@@H]3c4ccc(OCCBr)cc4CC[C@H]3[C@@H]1C[C@H](Cc1cccc(C(N)=O)c1)[C@@H]2O [Compound 15, 3-{[(16β,17β)-3-(2-bromoethoxy)-17-hydroxyestra-1(10),2,4-trien-16-yl]methyl}benzamide] | – | – | – | – | inhibition at 0.1 µM (17β-HSD1; [3]): 39%; inhibition at 1 µM (17β-HSD1; [4]): 81%
4 | C[C@]12CC[C@@]3(C[C@@H]1CC[C@@H]1[C@@H]2CC[C@]2(C)C(=O)CC[C@@H]12)CN(C1CCCCC1)C(=O)O3 [Compound 17i, (3R,5S,8R,9S,10S,13S,14S)-3′-cyclohexyl-10,13-dimethyltetradecahydro-2′H-spiro[cyclopenta[α]phenanthrene-3,5′-[1,3]oxazolidine]-2′,17(2H)-dione] | 29% | 13% | 75% | 78% | –
5 | Cc1ccc(CN2C[C@]3(CC[C@@]4(C)[C@@H](CC[C@@H]5[C@@H]4CC[C@]4(C)C(=O)C(C)(C)C[C@@H]54)C3)OC2=O)cc1 [Compound 18, (3R,5S,8R,9S,10S,13S,14S)-10,13,16,16-tetramethyl-3′-(4-methylbenzyl)tetrahydrodecahydro-2′H-spiro[cyclopenta[α]phenanthrene-3,5′-[1,3]oxazolidine]-2′,17(2H)-dione] | 18% | 2% | 22% | 74% | –
6 | C[C@]12CC[C@@H]3c4ccc(CCc5ccccc5)cc4CC[C@H]3[C@@H]1C[C@H](Cc1cccc(C(N)=O)c1)[C@@H]2O [Compound 19, 3-{[(16β,17β)-17-hydroxy-3-(2-phenylethyl)estra-1(10),2,4-trien-16-yl]methyl}benzamide] | – | – | – | – | inhibition at 0.1 µM (17β-HSD1): 13%
7 | C[C@]12CC[C@@]3(C[C@@H]1CC[C@@H]1[C@@H]2CC[C@]2(C)C(=O)CC[C@@H]12)CN(CCBr)C(=O)O3 [Compound 22, (3R,5S,8R,9S,10S,13S,14S)-3′-(2-bromoethyl)-10,13-dimethyltetrahydrodecahydro-2′H-spiro[cyclopenta[α]phenanthrene-3,5′-[1,3]oxazolidine]-2′,17(2H)-dione] | 31% | 17% | – | 93% | –
8 | Cc1cccc(OCCN2C[C@]3(CC[C@@]4(C)[C@@H](CC[C@@H]5[C@@H]4CC[C@]4(C)C(=O)CC[C@@H]54)C3)OC2=O)c1 [Compound 23a, (3R,5S,8R,9S,10S,13S,14S)-10,13-dimethyl-3′-[2-(3-methylphenoxy)ethyl]tetrahydrodecahydro-2′H-spiro[cyclopenta[α]phenanthrene-3,5′-[1,3]oxazolidine]-2′,17(2H)-dione] | 40% | 13% | – | 95% | –
9 | Cc1cccc(S(=O)(=O)CCN2C[C@]3(CC[C@@]4(C)[C@@H](CC[C@@H]5[C@@H]4CC[C@]4(C)C(=O)CC[C@@H]54)C3)OC2=O)c1 [Compound 23b] | 5% | 0% | 52% | 93% | –
10 | C[C@]12CC[C@@]3(C[C@@H]1CC[C@@H]1[C@@H]2CC[C@]2(C)C(=O)CC[C@@H]12)CN(CCN1CCCCC1)C(=O)O3 [Compound 23c, (3R,5S,8R,9S,10S,13S,14S)-10,13-dimethyl-3′-[2-(piperidin-1-yl)ethyl]tetrahydrodecahydro-2′H-spiro[cyclopenta[α]phenanthrene-3,5′-[1,3]oxazolidine]-2′,17(2H)-dione] | – | 0% | 0% | 21% | Intact cells (%) (0.1 μM), tested in another experiment (17β-HSD3 [1]): 10^b %
11 | CCN(CCN1C[C@]2(CC[C@@]3(C)[C@@H](CC[C@@H]4[C@@H]3CC[C@]3(C)C(=O)CC[C@@H]43)C2)OC1=O)C1CCCCC1 [Compound 23e, (3R,5S,8R,9S,10S,13S,14S)-3′-{2-[cyclohexyl(ethyl)amino]ethyl}-10,13-dimethyltetradecahydro-2′H-spiro[cyclopenta[α]phenanthrene-3,5′-[1,3]oxazolidine]-2′,17(2H)-dione] | 2% | 2% | 21% | 72% | –
12 | CCCN(CCC)CCN1C[C@]2(CC[C@@]3(C)[C@@H](CC[C@@H]4[C@@H]3CC[C@]3(C)C(=O)CC[C@@H]43)C2)OC1=O [Compound 23f, (3R,5S,8R,9S,10S,13S,14S)-3′-[2-(dipropylamino)ethyl]-10,13-dimethyltetradecahydro-2′H-spiro[cyclopenta[α]phenanthrene-3,5′-[1,3]oxazolidine]-2′,17(2H)-dione] | – | 0% | 10% | 62% | Intact cells (%) (0.1 μM), tested in another experiment (17β-HSD3 [1]): 8^b %
13 | CCCN(CCN1C[C@]2(CC[C@@]3(C)[C@@H](CC[C@@H]4[C@@H]3CC[C@]3(C)C(=O)CC[C@@H]43)C2)OC1=O)C(=O)CC [Compound 23g, N-{(3R,5S,8R,9S,10S,13S,14S)-10,13-dimethyl-2′,17-dioxohexadecahydro-3′H-spiro[cyclopenta[α]phenanthrene-3,5′-[1,3]oxazolidine-3′-yl]ethyl}-N-propylpropanamide] | 25% | 0% | 35% | 80% | –
14 | C[C@]12CC[C@@H]3c4ccc(CCCO)cc4CC[C@H]3[C@@H]1C[C@H](Cc1cccc(C(N)=O)c1)[C@@H]2O [Compound 24, 3-{[(16β,17β)-17-hydroxy-3-(3-hydroxypropyl)estra-1(10),2,4-trien-16-yl]methyl}benzamide] | – | – | – | – | inhibition at 0.1 µM (17β-HSD1; [3]): 16%
15 | C[C@]12CC[C@@H]3c4ccc(CCCBr)cc4CC[C@H]3[C@@H]1C[C@H](Cc1cccc(C(N)=O)c1)[C@@H]2O [Compound 25, 3-{[(16β,17β)-3-(3-bromopropyl)-17-hydroxyestra-1(10),2,4-trien-16-yl]methyl}benzamide] | – | – | – | – | inhibition at 0.1 µM (17β-HSD1): 37%; inhibition at 1 µM (17β-HSD1): 82%
16 | CNC(=O)Cc1ccc2c(c1)CC[C@@H]1[C@@H]2CC[C@]2(C)[C@@H](O)[C@@H](Cc3cccc(C(N)=O)c3)C[C@@H]12 [Compound 32, 3-{[(16β,17β)-17-hydroxy-3-[2-(methylamino)-2-oxoethyl]estra-1(10),2,4-trien-16-yl]methyl}benzamide] | – | – | – | – | inhibition at 0.1 µM (17β-HSD1): 5%; inhibition at 1 µM (17β-HSD1): 15%
17 | CN(C)Cc1ccc2c(c1)CC[C@@H]1[C@@H]2CC[C@]2(C)[C@@H](O)[C@@H](Cc3cccc(C(N)=O)c3)C[C@@H]12 [Compound 40a, 3-{[(16β,17β)-3-[(dimethylamino)methyl]-17-hydroxyestra-1,3,5(10)-trien-16-yl]methyl}benzamide] | – | – | – | – | inhibition at 0.1 µM (17β-HSD1; [3]): 12%; inhibition at 1 µM (17β-HSD1; [4]): 49%
